Drawing on patent US12344610B2, “APOL1 inhibitors and methods of use” (Maze Therapeutics, Inc., priority 2022, dated 2025), this text covers EC50 for 26 compounds.

The EC50 is the midpoint of the concentration-response curve.

In test [1] the test system is Trypanosoma brucei Lister 427 VSG221 with APOL1 G0 recombinant protein. Put plainly: APOL1 G0 trypanosome cell rescue assay (Example B5). Type of test: cell-based. Conditions: Trypanosoma brucei, 20 h, read-out: APOL1 G0 Trypanosome Rescue EC50, Trypanosoma brucei Lister 427 VSG221 with APOL1 G0 recombinant protein, 20 hours, CellTiter-Glo; geometric mean of at least 2 assay runs; † = single assay run. The gist of the method:
(§1)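 Compounds in duplicate 2-fold, 11-point series with 0.4% DMSO final. Next, tag-free mature APOL1 variant protein went in from a 2 μg/mL solution, then trypanosomes to 250 per well. Plates incubated 20 h humidified at 37° C, equilibrated to room temperature, and CellTiter-Glo added for luminescence.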
(ATP-based viability assays read luminescence as a measure of living cells.)

Test [2] has as its system Trypanosoma brucei Lister 427 VSG221 with APOL1 G2 recombinant protein. Put plainly: APOL1 G2 trypanosome cell rescue assay (Example B5). Format: cell-based. To be noted: Trypanosoma brucei, 20 h, read-out: APOL1 G2 Trypanosome Rescue EC50, Trypanosoma brucei Lister 427 VSG221 with APOL1 G2 recombinant protein, 20 hours, CellTiter-Glo; geometric mean of at least 2 assay runs; † = single assay run. The method, boiled down: as §1

Consider `CS(=O)(=O)N1CCCc2cc(OCCN3CCC4(CC3)C(=O)Nc3ccc(Cl)cc34)ccc21` [Compound 53, 5-chloro-1′-{2-[(1-methanesulfonyl-1,2,3,4-tetrahydroquinolin-6-yl)oxy]ethyl}-1,2-dihydrospiro[indole-3,4′-piperidin]-2-one], for which the values for the EC50 in test [1] and in test [2] were 156 nM and 47.8 nM, respectively.
Turning to `CC(=O)N1CCCc2cc(OCCN3CCC4(CC3)C(=O)Nc3ccc(Cl)cc34)ccc21` [Compound 56, 1′-{2-[(1-acetyl-1,2,3,4-tetrahydroquinolin-6-yl)oxy]ethyl}-5-chloro-1,2-dihydrospiro[indole-3,4′-piperidin]-2-one], the EC50 in test [1] came out at 296 nM; in test [2], 119 nM.
The corresponding values for `CC(=O)N1Cc2ccc(OCCN3CCC4(CC3)C(=O)Nc3ccc(Cl)cc34)cc2C1` [Compound 57, 1′-{2-[(2-acetyl-2,3-dihydro-1H-isoindol-5-yl)oxy]ethyl}-5-chloro-1,2-dihydrospiro[indole-3,4′-piperidin]-2-one] are 673 nM and 183 nM.
As to `CNC(=O)N1CCCc2cc(OCCN3CCC4(CC3)C(=O)Nc3ccc(Cl)cc34)ccc21` [Compound 60, 6-(2-{5-chloro-2-oxo-1,2-dihydrospiro[indole-3,4′-piperidin]-1′-yl}ethoxy)-N-methyl-1,2,3,4-tetrahydroquinoline-1-carboxamide], the EC50 in test [1] worked out at 189 nM; in test [2], 66 nM.
The corresponding values for `O=C1Nc2ccc(Cl)cc2C12CCN(CCOc1ccc3nccnc3c1)CC2` [Compound 62, 5-chloro-1′-[2-(quinoxalin-6-yloxy)ethyl]-1,2-dihydrospiro[indole-3,4′-piperidin]-2-one] are 407 nM and 120 nM.
The corresponding values for `CS(=O)(=O)c1ccc(OCCN2CCC3(CC2)C(=O)Nc2ccc(Cl)cc23)cc1F` [Compound 63, 5-chloro-1′-[2-(3-fluoro-4-methanesulfonylphenoxy)ethyl]-1,2-dihydrospiro[indole-3,4′-piperidin]-2-one] are 118 nM and 40.9 nM.
The corresponding values for `CS(=O)(=O)c1ccc(OCCN2CCC3(CC2)C(=O)Nc2ccc(Cl)cc23)cn1` [Compound 64, 5-chloro-1′-{2-[(6-methanesulfonylpyridin-3-yl)oxy]ethyl}-1,2-dihydrospiro[indole-3,4′-piperidin]-2-one] are 503 nM and 167 nM.
Turning to `CN1C(=O)Cc2cc(OCCN3CCC4(CC3)C(=O)Nc3ccc(Cl)cc34)ccc21` [Compound 65, 5-chloro-1′-{2-[(1-methyl-2-oxo-2,3-dihydro-1H-indol-5-yl)oxy]ethyl}-1,2-dihydrospiro[indole-3,4′-piperidin]-2-one], the EC50 in test [1] amounted to 318 nM; in test [2], 96.8 nM.
Turning to `Cc1ccc2c(c1)C1(CCN(CCOc3ccc(S(C)(=O)=O)cc3)CC1)C(=O)N2` [Compound 66, 1′-[2-(4-methanesulfonylphenoxy)ethyl]-5-methyl-1,2-dihydrospiro[indole-3,4′-piperidin]-2-one], the EC50 in test [1] came to 246 nM; in test [2], 97.6 nM.
The corresponding values for `Cn1ncc2cc(OCCN3CCC4(CC3)C(=O)Nc3ccc(Cl)cc34)ccc21` [Compound 68, 5-chloro-1′-{2-[(1-methyl-1H-indazol-5-yl)oxy]ethyl}-1,2-dihydrospiro[indole-3,4′-piperidin]-2-one] are 358 nM and 115 nM.
The corresponding values for `CS(=O)(=O)c1ccc(OCCN2CCC3(CC2)C(=O)Nc2ccc(Cl)cc23)cc1` [Compound 69, 5-chloro-1′-[2-(4-methanesulfonylphenoxy)ethyl]-1,2-dihydrospiro[indole-3,4′-piperidin]-2-one] are 153 nM and 46.5 nM.
The corresponding values for `Cn1ncc2cc(OCCN3CCC4(CC3)C(=O)Nc3ccccc34)ccc21` [Compound 70, 1′-{2-[(1-methyl-1H-indazol-5-yl)oxy]ethyl}-1,2-dihydrospiro[indole-3,4′-piperidin]-2-one] are more than 4000 nM and 918 nM.
As for `CS(=O)(=O)c1ccc(OCCN2CCC3(CC2)C(=O)Nc2ccc(C#N)cc23)cc1` [Compound 71, 1′-[2-(4-methanesulfonylphenoxy)ethyl]-2-oxo-1,2-dihydrospiro[indole-3,4′-piperidine]-5-carbonitrile], the concentration for a half-maximal effect (EC50) in test [1] came to 814 nM; in test [2], 205 nM.
The corresponding values for `CS(=O)(=O)c1ccc(OCCN2CCC3(CC2)C(=O)Nc2ccc(Br)cc23)cc1` [Compound 72, 5-bromo-1′-[2-(4-methanesulfonylphenoxy)ethyl]-1,2-dihydrospiro[indole-3,4′-piperidin]-2-one] are 128 nM and 45.7 nM.
The corresponding values for `CN(c1ccc(OCCN2CCC3(CC2)C(=O)Nc2ccc(C#N)cc23)cc1)S(C)(=O)=O` [Compound 75, N-[4-(2-{5-cyano-2-oxo-1,2-dihydrospiro[indole-3,4′-piperidin]-1′-yl}ethoxy)phenyl]-N-methylmethanesulfonamide] are 383 nM and 146 nM.
As to `CN(c1ccc(OCCN2CCC3(CC2)C(=O)Nc2ccc(Cl)cc23)cc1)S(C)(=O)=O` [Compound 76, N-[4-(2-{5-chloro-2-oxo-1,2-dihydrospiro[indole-3,4′-piperidin]-1′-yl}ethoxy)phenyl]-N-methylmethanesulfonamide], the EC50 in test [1] was 106 nM; in test [2], 35.5 nM.
The corresponding values for `CS(C)(=O)=Nc1ccc(OCCN2CCC3(CC2)C(=O)Nc2ccc(C#N)cc23)cc1` [Compound 77, 1′-[2-(4-{[dimethyl(oxo)-λ^6-sulfanylidene]amino}phenoxy)ethyl]-2-oxo-1,2-dihydrospiro[indole-3,4′-piperidine]-5-carbonitrile] are more than 4000 nM and 1450 nM.
The corresponding values for `CN1C(=O)CCc2cc(OCCN3CCC4(CC3)C(=O)Nc3ccc(Cl)cc34)cnc21` [Compound 78, 5-chloro-1′-{2-[(8-methyl-7-oxo-5,6,7,8-tetrahydro-1,8-naphthyridin-3-yl)oxy]ethyl}-1,2-dihydrospiro[indole-3,4′-piperidin]-2-one] are 95.2 nM and 32.6 nM.
The corresponding values for `CN1C(=O)CCc2cc(OCCN3CCC4(CC3)C(=O)Nc3ccc(C#N)cc34)cnc21` [Compound 79, 1′-{2-[(8-methyl-7-oxo-5,6,7,8-tetrahydro-1,8-naphthyridin-3-yl)oxy]ethyl}-2-oxo-1,2-dihydrospiro[indole-3,4′-piperidine]-5-carbonitrile] are 846 nM and 293 nM.
In the case of `CC(C)[C@]1(O)C[C@@H](N2C(=O)CCc3cc(OCCN4CCC5(CC4)C(=O)Nc4ccc(Cl)cc45)cnc32)C1` [Compound 317, 5-chloro-1′-[2-({7-oxo-8-[(cis)-3-hydroxy-3-(propan-2-yl)cyclobutyl]-5,6,7,8-tetrahydro-1,8-naphthyridin-3-yl}oxy)ethyl]-1,2-dihydrospiro[indole-3,4′-piperidin]-2-one], the EC50 in test [1] is 33 nM; in test [2], 11.5 nM.
The corresponding values for `C[C@]1(O)C[C@@H](n2c(=O)ccc3cc(OCCN4CCC5(CC4)C(=O)Nc4ccc(Cl)cc45)cnc32)C1` [Compound 323, 5-chloro-1′-[2-({7-oxo-8-[(cis)-3-hydroxy-3-methylcyclobutyl]-7,8-dihydro-1,8-naphthyridin-3-yl}oxy)ethyl]-1,2-dihydrospiro[indole-3,4′-piperidin]-2-one] are 32 nM and 11.8 nM.
Regarding `C[C@]1(O)C[C@@H](n2c(=O)ccc3cc(OCCN4CCC5(CC4)C(=O)Nc4ccc(C(F)F)cc45)cnc32)C1` [Compound 324, 5-(difluoromethyl)-1′-[2-({7-oxo-8-[(cis)-3-hydroxy-3-methylcyclobutyl]-7,8-dihydro-1,8-naphthyridin-3-yl}oxy)ethyl]-1,2-dihydrospiro[indole-3,4′-piperidin]-2-one], the EC50 worked out at 28.9 nM in test [1] and 8.31 nM in test [2].
The corresponding values for `O=C1CCc2cc(OCCN3CCC4(CC3)C(=O)Nc3ccc(Cl)cc34)cnc2N1C1CC(CO)C1` (stereo not shown) [Compound 326, 5-chloro-1′-[2-({8-[3-(hydroxymethyl)cyclobutyl]-7-oxo-5,6,7,8-tetrahydro-1,8-naphthyridin-3-yl}oxy)ethyl]-1,2-dihydrospiro[indole-3,4′-piperidin]-2-one] are 88.6 nM and 32.7 nM.
Turning to `CC1(O)CC(CN2C(=O)CCc3cc(OCCN4CCC5(CC4)C(=O)Nc4ccc(Cl)cc45)cnc32)C1` (stereo not shown) [Compound 327, 5-chloro-1′-[2-({8-[(3-hydroxy-3-methylcyclobutyl)methyl]-7-oxo-5,6,7,8-tetrahydro-1,8-naphthyridin-3-yl}oxy)ethyl]-1,2-dihydrospiro[indole-3,4′-piperidin]-2-one], the EC50 in test [1] was found to be 39.9 nM; in test [2], 13.4 nM.
The corresponding values for `C[C@]1(O)C[C@@H](n2c(=O)ccc3cc(OCCN4CCC5(CC4)C(=O)Nc4ccc(OC(F)F)cc45)cnc32)C1` [Compound 328, 5-(difluoromethoxy)-1′-[2-({7-oxo-8-[(cis)-3-hydroxy-3-methylcyclobutyl]-7,8-dihydro-1,8-naphthyridin-3-yl}oxy)ethyl]-1,2-dihydrospiro[indole-3,4′-piperidin]-2-one] are 79.9 nM and 23.9 nM.
The corresponding values for `O=C1Nc2ccc(Cl)cc2C12CCN(CCOc1cnc(C3(CO)CC3)nc1)CC2` [Compound 333, 5-chloro-1′-[2-({2-[1-(hydroxymethyl)cyclopropyl]pyrimidin-5-yl}oxy)ethyl]-1,2-dihydrospiro[indole-3,4′-piperidin]-2-one] are 152 nM and 74 nM.
